Measured values from PubChem BioAssay (NCI).
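Five compound concentrations were applied to cells in 96-well plates for 48 hours; endpoints were derived by simple linear interpolation of the resulting dose-response curve. TGI denotes the concentration required for complete inhibition of growth.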

Experiments:
Test in all cases: inhibition of tumour cell growth, NCI panel, 48 h
SK-MEL-5 melanoma = system: SK-MEL-5 melanoma
A549 NSCLC = system: A549 NSCLC
RPMI-8226 leukemia = system: RPMI-8226 leukemia
M14 melanoma = system: M14 melanoma
BT-549 breast = system: BT-549 breast
HCC-2998 colon = system: HCC-2998 colon
IGROV1 ovarian = system: IGROV1 ovarian
MDA-MB-435 = system: MDA-MB-435
SK-MEL-2 melanoma = system: SK-MEL-2 melanoma
TK-10 renal = system: TK-10 renal
SNB-19 CNS = system: SNB-19 CNS
SK-OV-3 ovarian = system: SK-OV-3 ovarian
SR leukemia = system: SR leukemia
NCI-H522 lung = system: NCI-H522 lung
OVCAR-4 ovarian = system: OVCAR-4 ovarian
MDA-MB-231 breast = system: MDA-MB-231 breast
A498 renal = system: A498 renal
OVCAR-8 ovarian = system: OVCAR-8 ovarian
COLO 205 colon = system: COLO 205 colon
PC-3 prostate = system: PC-3 prostate
U251 CNS = system: U251 CNS
RXF 393 renal = system: RXF 393 renal
MCF7 breast = system: MCF7 breast
NCI-H460 lung = system: NCI-H460 lung
HCT-116 colon = system: HCT-116 colon
EKVX NSCLC = system: EKVX NSCLC
MALME-3M melanoma = system: MALME-3M melanoma
ACHN renal = system: ACHN renal
HS 578T breast = system: HS 578T breast
OVCAR-3 ovarian = system: OVCAR-3 ovarian
HOP-62 NSCLC = system: HOP-62 NSCLC
UACC-62 melanoma = system: UACC-62 melanoma
NCI-H226 lung = system: NCI-H226 lung
SF-539 CNS = system: SF-539 CNS
NCI-H23 lung = system: NCI-H23 lung
KM12 colon = system: KM12 colon
SW-620 colon = system: SW-620 colon
K-562 leukemia = system: K-562 leukemia
UACC-257 melanoma = system: UACC-257 melanoma
SF-295 CNS = system: SF-295 CNS
T-47D breast = system: T-47D breast
SNB-75 CNS = system: SNB-75 CNS
CAKI-1 renal = system: CAKI-1 renal
MOLT-4 leukemia = system: MOLT-4 leukemia
UO-31 renal = system: UO-31 renal
SK-MEL-28 melanoma = system: SK-MEL-28 melanoma
SN12C renal = system: SN12C renal
786-0 renal = system: 786-0 renal
DU-145 prostate = system: DU-145 prostate
CCRF-CEM leukemia = system: CCRF-CEM leukemia
LOX IMVI melanoma = system: LOX IMVI melanoma
SF-268 CNS = system: SF-268 CNS
HL-60(TB) leukemia = system: HL-60(TB) leukemia
HT29 colon = system: HT29 colon
HCT-15 colon = system: HCT-15 colon
OVCAR-5 ovarian = system: OVCAR-5 ovarian
MDA-N = system: MDA-N
NCI/ADR-RES ovarian = system: NCI/ADR-RES ovarian
HOP-92 NSCLC = system: HOP-92 NSCLC

Measured: TGI

C=C(CO)[C@H]1Oc2ccc(C(C)=O)cc2[C@@H]1O
56.5 µM: MDA-N
> 100 µM: SK-MEL-5 melanoma | A549 NSCLC | RPMI-8226 leukemia | M14 melanoma | BT-549 breast | HCC-2998 colon | IGROV1 ovarian | MDA-MB-435 | SK-MEL-2 melanoma | TK-10 renal | SNB-19 CNS | SK-OV-3 ovarian | SR leukemia | NCI-H522 lung | OVCAR-4 ovarian | MDA-MB-231 breast | A498 renal | OVCAR-8 ovarian | COLO 205 colon | PC-3 prostate | U251 CNS | RXF 393 renal | MCF7 breast | NCI-H460 lung | HCT-116 colon | EKVX NSCLC | MALME-3M melanoma | ACHN renal | HS 578T breast | OVCAR-3 ovarian | HOP-62 NSCLC | UACC-62 melanoma | NCI-H226 lung | SF-539 CNS | NCI-H23 lung | KM12 colon | SW-620 colon | K-562 leukemia | UACC-257 melanoma | SF-295 CNS | T-47D breast | SNB-75 CNS | CAKI-1 renal | MOLT-4 leukemia | UO-31 renal | SK-MEL-28 melanoma | SN12C renal | 786-0 renal | DU-145 prostate | CCRF-CEM leukemia | LOX IMVI melanoma | SF-268 CNS | HL-60(TB) leukemia | HT29 colon | HCT-15 colon | OVCAR-5 ovarian

NS(=O)(=O)c1nnc(NS(=O)(=O)c2ccc(Cl)cc2)s1
> 100 µM: SK-MEL-5 melanoma | A549 NSCLC | RPMI-8226 leukemia | M14 melanoma | BT-549 breast | HCC-2998 colon | MDA-MB-435 | SK-MEL-2 melanoma | TK-10 renal | SNB-19 CNS | SK-OV-3 ovarian | SR leukemia | NCI-H522 lung | OVCAR-4 ovarian | MDA-MB-231 breast | A498 renal | OVCAR-8 ovarian | NCI/ADR-RES ovarian | COLO 205 colon | U251 CNS | RXF 393 renal | MCF7 breast | NCI-H460 lung | HCT-116 colon | EKVX NSCLC | MALME-3M melanoma | ACHN renal | HS 578T breast | OVCAR-3 ovarian | HOP-62 NSCLC | UACC-62 melanoma | NCI-H226 lung | NCI-H23 lung | KM12 colon | SW-620 colon | K-562 leukemia | UACC-257 melanoma | SF-295 CNS | T-47D breast | HOP-92 NSCLC | CAKI-1 renal | MOLT-4 leukemia | UO-31 renal | SK-MEL-28 melanoma | SN12C renal | 786-0 renal | DU-145 prostate | LOX IMVI melanoma | SF-268 CNS | HT29 colon | HCT-15 colon | OVCAR-5 ovarian | MDA-N
